The text below walks through data of patent US6503935B1, “Imidazoles and related compounds as α1A agonists” (Abbott Laboratories, priority 1998, dated 2003).

SMILES strings stand for the structures. Where a name gives a salt, the structure may show the parent alone. Read-outs that look alike come from different tables or passages of the source.

One data set concerns the target T1, α1B (rat spleen) (Rattus norvegicus, UniProt P15823).
T1 construct: α1B (rat spleen) and α1D (rat aorta) receptors; from tissue; host or cells: rat spleen
T1 sequence (P15823 1-515): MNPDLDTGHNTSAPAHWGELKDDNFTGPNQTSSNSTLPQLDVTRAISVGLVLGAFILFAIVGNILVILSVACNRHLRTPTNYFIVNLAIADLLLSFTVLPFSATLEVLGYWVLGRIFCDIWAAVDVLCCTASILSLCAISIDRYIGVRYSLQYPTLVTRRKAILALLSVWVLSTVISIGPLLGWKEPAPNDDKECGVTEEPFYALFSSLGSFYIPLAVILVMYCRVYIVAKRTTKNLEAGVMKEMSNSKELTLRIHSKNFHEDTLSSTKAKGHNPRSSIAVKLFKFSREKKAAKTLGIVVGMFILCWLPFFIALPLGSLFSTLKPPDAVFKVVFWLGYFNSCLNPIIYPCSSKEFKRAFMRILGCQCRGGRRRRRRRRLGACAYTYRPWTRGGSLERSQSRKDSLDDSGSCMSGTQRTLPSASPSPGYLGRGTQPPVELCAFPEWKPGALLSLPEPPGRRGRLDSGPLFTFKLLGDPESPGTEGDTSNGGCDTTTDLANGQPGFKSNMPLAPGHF
In words: Agonist contraction of smooth muscle tissue, rat spleen. The note with it: read-out: Agonist Tissue Response (pD2) α1B (rat spleen) (converted). Format: cell-based.

Data set [1] deals with T2, α1A (rat epididymal vas deferens) (Rattus norvegicus, UniProt P43140).
T2 sequence (P43140 1-466): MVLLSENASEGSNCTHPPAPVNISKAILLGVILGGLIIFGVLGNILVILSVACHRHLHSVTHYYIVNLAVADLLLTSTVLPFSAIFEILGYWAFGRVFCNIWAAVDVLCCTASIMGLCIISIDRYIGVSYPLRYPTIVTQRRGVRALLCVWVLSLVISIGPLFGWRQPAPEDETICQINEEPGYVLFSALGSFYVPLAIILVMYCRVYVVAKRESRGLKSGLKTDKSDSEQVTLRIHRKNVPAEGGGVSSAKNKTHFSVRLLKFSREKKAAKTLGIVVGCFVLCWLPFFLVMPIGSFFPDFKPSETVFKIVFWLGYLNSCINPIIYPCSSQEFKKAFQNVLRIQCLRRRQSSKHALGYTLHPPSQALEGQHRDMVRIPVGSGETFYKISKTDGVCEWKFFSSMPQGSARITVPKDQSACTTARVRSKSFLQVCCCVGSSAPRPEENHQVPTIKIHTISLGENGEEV
In words: cell-based. The note with it: rat epididymal vas deferens (values marked *); read-out: Agonist Tissue Response (pD2) α1A, test performed using rat epididymal vas deferens (converted).

The next data set addresses T3, α1D (rat aorta) (Rattus norvegicus, UniProt P23944).
T3 construct: α1B (rat spleen) and α1D (rat aorta) receptors; from tissue; host or cells: rat aorta strips, endothelium removed
T3 sequence (P23944 1-561): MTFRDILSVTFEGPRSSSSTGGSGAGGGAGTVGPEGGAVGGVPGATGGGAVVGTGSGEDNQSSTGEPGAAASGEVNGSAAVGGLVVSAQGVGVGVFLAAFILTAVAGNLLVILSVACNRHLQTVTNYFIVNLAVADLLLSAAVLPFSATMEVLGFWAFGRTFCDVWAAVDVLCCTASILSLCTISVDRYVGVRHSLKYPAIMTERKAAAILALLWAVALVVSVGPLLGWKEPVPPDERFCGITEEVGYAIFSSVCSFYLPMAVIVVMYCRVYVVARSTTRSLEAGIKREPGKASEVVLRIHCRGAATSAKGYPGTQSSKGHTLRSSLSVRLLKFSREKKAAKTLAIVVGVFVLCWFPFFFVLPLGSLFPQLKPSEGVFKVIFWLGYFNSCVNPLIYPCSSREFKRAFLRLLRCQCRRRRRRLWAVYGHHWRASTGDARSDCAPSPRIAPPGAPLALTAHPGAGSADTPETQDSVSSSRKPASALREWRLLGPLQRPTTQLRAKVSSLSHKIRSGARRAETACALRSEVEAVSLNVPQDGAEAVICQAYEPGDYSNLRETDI
In words: Agonist contraction of smooth muscle tissue, rat aorta. Format: cell-based. To be noted: read-out: Agonist Tissue Response (pD2) α1D (rat aorta) (converted).

Data set [2] deals with T4, α1d (rat receptor expressed in mouse fibroblasts) (Rattus norvegicus, UniProt P23944).
T4 construct: expressed in transfected cells; host or cells: mouse fibroblasts
T4 sequence (P23944 1-561): T3 sequence (P23944 1-561)
In words: Radioligand binding with [3H]-prazosin, α1d. The note with it: read-out: Radioligand Binding Ki α1d (Rat). Summed up:
(§1)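 Radioligand binding with [3H]-prazosin: α1A from rat submaxillary gland; α1b hamster receptor and α1d rat receptor, each expressed in mouse fibroblasts.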

The target in data set [3] is T5, α1A (rat submaxillary gland) (Rattus norvegicus, UniProt P43140).
T5 construct: α1A (rat submaxillary gland); from tissue; host or cells: rat submaxillary gland
T5 sequence (P43140 1-466): T2 sequence (P43140 1-466)
In words: Radioligand binding with [3H]-prazosin, α1A. Summed up: as §1

Data set [4] addresses T6, α1b (hamster receptor expressed in mouse fibroblasts) (Mesocricetus auratus, UniProt P18841).
T6 construct: expressed in transfected cells; host or cells: mouse fibroblasts
T6 sequence (P18841 1-515): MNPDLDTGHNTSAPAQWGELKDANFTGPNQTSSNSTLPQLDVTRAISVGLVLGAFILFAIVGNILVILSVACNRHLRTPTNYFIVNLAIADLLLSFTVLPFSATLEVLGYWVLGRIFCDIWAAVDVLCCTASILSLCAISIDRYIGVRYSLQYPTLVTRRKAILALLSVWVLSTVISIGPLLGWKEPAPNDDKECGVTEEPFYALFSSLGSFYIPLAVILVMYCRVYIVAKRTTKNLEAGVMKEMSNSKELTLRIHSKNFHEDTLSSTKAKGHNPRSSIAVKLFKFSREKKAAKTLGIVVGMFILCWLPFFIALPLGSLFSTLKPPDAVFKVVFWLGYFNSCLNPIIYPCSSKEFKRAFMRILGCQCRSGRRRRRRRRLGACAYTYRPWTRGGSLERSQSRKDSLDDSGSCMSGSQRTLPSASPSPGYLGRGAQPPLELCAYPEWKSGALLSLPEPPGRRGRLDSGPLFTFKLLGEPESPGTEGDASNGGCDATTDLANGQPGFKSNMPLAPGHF
In words: Radioligand binding with [3H]-prazosin, α1b. The note with it: read-out: Radioligand Binding Ki α1b (Hamster). In outline:
as §1

In data set [5] the test system is Anesthetized Dogs. In words: Mean arterial pressure (MAP) in anesthetized dogs. It is filed as in vivo, dog. To be noted: iv dose causing a maximum increase in MAP of 20 mm Hg, anesthetized female dogs. From the text: In vivo Functional Assays-Assessment of Intrurethral Pressure (IUP) and Mean Arterial Pressure (MAP) in Anesthetized Dogs
Female dogs (Marshall Farms, North Rose, N.Y.) greater that 2 years of age and weighing between 12 and 15 kg were used in these studies. At least 2 weeks prior to any agonist dosing, dogs were instrumented for the chronic measurement of arterial blood pressure by implanting a telemetry transducer/transmitter (TA11PA-C40, Data Sciences International, St. Paul, Minn.) into a carotid artery.
On the test day, dogs fasted since the previous afternoon were pre-anesthetized with thiopental sodium 15 mg/kg i.v. (Pentothal™, Abbott) and intubated. Anesthesia was maintained by allowing the dog to spontaneously breathe a mixture of isoflurane (2.5 to 3 volume %) and oxygen delivered by a Narkomed Standard anesthesia system (North American Drager, Telford, Pa.). An Abbocath-T™ i.v. catheter (18-G, Abbott) was inserted into the cephalic vein for the administration of agonists. A telemetry receiver (RA1310, DataSciences) was placed under the head of each dog and was interfaced to a computerized data acquisition system (Modular Instruments Inc.(MI2), Malvern, Pa.) which allowed for the continuous calibrated recording of arterial blood pressure which was electronically filtered to determine its mean value (MAP).
Dogs with chronic telemetry implants anesthetized as described above were placed in dorsal recumbency and a balloon catheter was inserted into the urethral orifice and advanced approximately 15 cm until the tip was well inside the bladder. The balloon was then inflated with 1 ml of room air and the catheter slowly withdrawn until resistance (corresponding to the bladder neck) was evident. The balloon was then deflated and the catheter withdrawn an additional 2 cm. The balloon was then reinflated and its catheter port connected to a Gould Statham P23Dd pressure transducer interfaced to a computerized data acquisition system (Modular Instruments, Inc., Malvern, Pa.) for the measurement of intraurethral pressure. Increasing iv doses of test agonists were administered and the maximum effect of each dose on IUP was recorded. The effect of each dose was allowed to return to baseline before the next dose was given.
From the resulting dose response curve, an ED5 value, for the dose causing a maximum increase in IUP of 5 mm Hg, could be estimated. An ED20 value for the dose causing a maximum increase in MAP of 20 mm Hg could also be estimated. A selectivity ratio of MAP ED20 vs. IUP ED5 was calculated.

For data set [6], the system named is Anesthetized Dogs. In words: Urethral pressure profile in anesthetized dogs. The note with it: increasing iv doses, FIG. 1. Format: in vivo, dog. From the text:
Assessment of Urethral Pressure Profile in Anesthetized Dogs
Dogs instrumented and anesthetized as decribed above were placed in left lateral recumbency and a dual pressure sensor catheter (SPC-771, Millar Instruments, Houston, Tex.) was inserted into the urethra and advanced into the bladder. The proximal pressure sensor was interfaced to a MI2 computerized data acquisition system for the measurement of lower urinary tract pressures. At a resting intravesical pressure of approximately 5 cm of H2O, urethral pressure was measured from the sensor as the catheter was withdrawn using a modified syringe pump (Model 22, Harvard Apparatus, South Natick, Mass.) at its maximal rate of 0.83 mm/sec. Measurement from the proximal sensor allowed easy reinsertion as the distal 5 cm of the catheter remains in the urethra after the total profile has been obtained. Three resting urethral pressure profiles were obtained at 5 minute intervals before dosing, then a single profile was initiated 30 sec after each increasing iv dose during the time corresponding to the maximum arterial pressure effects of that dose. The increase in arterial pressure seen after each agonist dose was allowed to return to baseline before the next dose was given.

In data set [7] the test system is Anesthetized Dogs. In words: Intraurethral pressure (IUP) in anesthetized dogs. It is filed as in vivo, dog. To be noted: Canis lupus familiaris; iv dose causing a maximum increase in IUP of 5 mm Hg, anesthetized female dogs; read-out: Mean IUP ED5.

For the molecule `Cn1cncc1C1CCCc2c1ccc(O)c2NS(C)(=O)=O` (stereo not drawn) [Example 4, N-[2-hydroxy-5-(1-methyl-1H-imidazol-5-yl)-5,6,7,8-tetrahydro-1-naphthalenyl]methanesulfonamide, hydrochloride], the EC50 at α1B (rat spleen) was above 1000 µM; in data set [1] it was 309 µM; on α1D (rat aorta), 95.5 µM. For the same molecule, the Ki – broadly, a measure of affinity in units of concentration, obtained from inhibition or displacement – came out at 31.6 µM in data set [2], 24.6 µM in data set [3] and 31.6 µM in data set [4].
As to `CS(=O)(=O)Nc1cccc2c1CCCC2c1c[nH]cn1.Cl` (stereo not drawn) [Example 8, N-[5-(1H-imidazol-4-yl)-5,6,7,8-tetrahydro-1-naphthalenyl]methanesulfonamide, hydrochloride], the “Mean MAP ED20” value with Anesthetized Dogs [5] came to 102 nmol/kg. Further, the urethral pressure profile result with Anesthetized Dogs [6] was “corresponding increases in the urethral pressure”. Further, the ED (5 mmHg IUP increase) in the data set on Anesthetized Dogs [7] turned out to be 0.0255 µmol/kg.
Turning to `COc1ccc2c(c1NS(C)(=O)=O)CCCC2c1c[nH]cn1` (stereo not drawn) [Example 1, N-[5-(1H-imidazol-4-yl)-2-methoxy-5,6,7,8-tetrahydro-1-naphthalenyl]methanesulfonamide, hydrochloride], the results for the EC50 (at α1B (rat spleen); in data set [1]; on α1D (rat aorta)) were 955 µM, above 1000 µM and 5.5 µM, respectively. Besides, the Ki in [2] worked out at 0.482 µM; in data set [3], 0.5 µM; in [4], 1.7 µM.
`Cc1nc(C2CCCc3c2ccc(O)c3NS(C)(=O)=O)c[nH]1` (stereo not drawn) [Example 3, N-[2-hydroxy-5-(2-methyl-1H-imidazol-4-yl)-5,6,7,8-tetrahydro-1-naphthalenyl]methanesulfonamide, hydrochloride]: the EC50 on α1B (rat spleen) (rat spleen) was 12.9 µM; in [1] it was 1.95 µM; at α1D (rat aorta) (rat aorta, endothelium removed), 28.2 µM. Also, the Ki in data set [2] (rat receptor expressed in mouse fibroblasts, [3H]-prazosin) was found to be 8.29 µM; in data set [3] (rat submaxillary gland, [3H]-prazosin), 0.991 µM; in data set [4] (hamster receptor expressed in mouse fibroblasts, [3H]-prazosin), 50.4 µM.
`CS(=O)(=O)Nc1c(O)ccc2c1CCCC2c1c[nH]cn1` (stereo not drawn) [Example 2, N-[2-hydroxy-5-(1H-imidazol-4-yl)-5,6,7,8-tetrahydro-1-naphthalenyl]methanesulfonamide, hydrochloride]: the values for the EC50 (in data set [1]; on α1D (rat aorta)) were 0.017 µM and 1.91 µM, respectively. Further, the Ki in data set [2] was determined as 1.26 µM; in data set [3], 0.0361 µM; in [4], 2.52 µM.
For the molecule `CCn1cnc(C2CCCc3c2ccc(O)c3NS(C)(=O)=O)c1.Cl` (stereo not drawn) [Example 6, N-[5-(1-ethyl-1H-imidazol-4-yl)-2-hydroxy-5,6,7,8-tetrahydro-1-naphthalenyl]methanesulfonamide, hydrochloride], the melting point (as a rule, the temperature, or range, at which the solid turns liquid) is 230 to 234 °C (dec.). Further, the Ki in data set [2] worked out at 16.7 µM. Affinity in [3] was put at a Ki of 2.08 µM.
As to `CCCn1cnc(C2CCCc3c2ccc(O)c3NS(C)(=O)=O)c1` (stereo not drawn) [Example 7, N-[2-hydroxy-5-(1-propyl-1H-imidazol-4-yl)-5,6,7,8-tetrahydro-1-naphthalenyl]methanesulfonamide, hydrochloride], the EC50 (on α1B (rat spleen); in [1]) was above 1000 µM each time. Further, the Ki in data set [2] was 3.78 µM; in data set [3], 0.661 µM.
